In ChEMBL document CHEMBL1201862, “PubChem BioAssay data set” (2004):
Calls of active or inactive are those of the source.

What was measured:
[1] = NIH-3T3 fibroblast cytotoxicity, dose response, cytotoxicity control, cell-based, fluorescence, Alamar Blue, secondary assay (AID 2327); format: functional;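 note: NIH-3T3 mouse fibroblasts cultured with fluconazole at 8 µg/mL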
[2] = biological target: T1, Leucine aminopeptidase (Plasmodium falciparum 3D7, UniProt Q8IL11); experiment: P. falciparum M17LAP inhibitors, primary screen, biochemical, fluorogenic H-Leu-NHMec substrate, 1536-well (AID 1619); format: functional
T1 sequence (Q8IL11 whole entry): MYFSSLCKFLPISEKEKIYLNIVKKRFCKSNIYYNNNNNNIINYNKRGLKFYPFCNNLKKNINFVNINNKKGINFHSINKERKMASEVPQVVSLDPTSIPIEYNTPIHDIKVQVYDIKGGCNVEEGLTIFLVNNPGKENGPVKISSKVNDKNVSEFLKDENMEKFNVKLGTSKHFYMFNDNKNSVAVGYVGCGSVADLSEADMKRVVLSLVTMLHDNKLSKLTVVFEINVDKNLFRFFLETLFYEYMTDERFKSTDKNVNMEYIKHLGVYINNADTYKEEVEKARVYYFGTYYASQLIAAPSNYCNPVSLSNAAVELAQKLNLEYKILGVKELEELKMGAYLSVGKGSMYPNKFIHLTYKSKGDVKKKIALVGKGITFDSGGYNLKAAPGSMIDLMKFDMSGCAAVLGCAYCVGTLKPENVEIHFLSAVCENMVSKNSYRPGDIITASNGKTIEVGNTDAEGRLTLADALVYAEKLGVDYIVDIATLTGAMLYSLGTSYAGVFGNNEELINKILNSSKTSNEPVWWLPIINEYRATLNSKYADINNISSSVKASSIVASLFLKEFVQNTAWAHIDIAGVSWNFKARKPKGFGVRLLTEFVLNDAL

[3] = tested on: Streptococcus sp. 'group A'; experiment: Streptococcus pyogenes SK(-)GAS viability under kanamycin – luminescence, BacTiterGlo, confirmation, counter-screen for streptokinase expression inhibitor project, dose response (AID 1900); format: functional, organism-based
[4] = biological target: T2, Streptokinase A (Streptococcus pyogenes serotype M1, UniProt P10520); experiment: viability-normalized secreted streptokinase activity reduction – plasminogen activation absorbance, OD405, dose response (AID 1914); format: functional, Streptococcus pyogenes M1 GAS;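 note: secreted streptokinase activity via plasminogen activation per viability signal from cell pellet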
T2 sequence (P10520 whole entry): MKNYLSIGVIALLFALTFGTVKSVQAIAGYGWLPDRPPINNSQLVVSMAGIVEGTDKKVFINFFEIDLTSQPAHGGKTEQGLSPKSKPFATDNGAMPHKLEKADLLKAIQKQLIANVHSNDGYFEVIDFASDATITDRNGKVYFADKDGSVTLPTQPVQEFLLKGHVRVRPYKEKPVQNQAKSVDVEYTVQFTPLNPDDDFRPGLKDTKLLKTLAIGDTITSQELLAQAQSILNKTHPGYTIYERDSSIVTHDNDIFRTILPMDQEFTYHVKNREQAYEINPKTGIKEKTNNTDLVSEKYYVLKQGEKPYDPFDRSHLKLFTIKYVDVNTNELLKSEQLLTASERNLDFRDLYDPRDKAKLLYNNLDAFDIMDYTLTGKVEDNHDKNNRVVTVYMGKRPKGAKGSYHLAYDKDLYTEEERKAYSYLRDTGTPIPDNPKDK

[5] = fluconazole-exposed Candida albicans growth modulators – fluorescence, retest, confirmation (AID 2467); format: functional, cell-based
[6] = Trypanosoma cruzi growth suppression in host cells – NIH3T3 host cells, beta-gal luminescence, confirmation (AID 2044); format: functional, cell-based;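 note: intracellular parasites grown in NIH/3T3 mouse fibroblasts as host cells; luminescent beta-galactosidase reporter signal from transgenic T. cruzi replicating inside host cells; inhibitors lower the luminescence signal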
[7] = NIH3T3 cell viability loss – ATP luminescence, mouse fibroblasts, counter-screen, dose response (AID 2010); format: functional, cell-based;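 note: cells exposed to compound for about 90 hours before reading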
[8] = tested on: Streptococcus; experiment: GAS UMAA2166 growth inhibition – luminescence, BacTiterGlo, counter-screen for streptokinase expression inhibitor project, dose response (AID 1915); format: functional, organism-based;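 note: potency for reduction of bacterial viability or growth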
[9] = biological target: Nonstructural protein 1 (Influenza A virus, UniProt Q194T2); format: functional, Influenza A virus (A/California/07/2009(H1N1))
Chain of Nonstructural protein 1 (Q194T2 whole entry, the tested form may be a part): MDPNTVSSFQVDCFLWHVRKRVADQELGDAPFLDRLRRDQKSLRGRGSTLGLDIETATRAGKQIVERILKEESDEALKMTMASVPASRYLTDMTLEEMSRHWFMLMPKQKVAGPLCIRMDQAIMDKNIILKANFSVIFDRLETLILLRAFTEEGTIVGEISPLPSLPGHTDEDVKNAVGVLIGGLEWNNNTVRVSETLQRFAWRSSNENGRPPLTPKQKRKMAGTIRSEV

[10] = biological target: Photoreceptor-specific nuclear receptor (Homo sapiens, UniProt Q9Y5X4); format: functional, cell-based;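 note: CHO-S cells with Gal4-NCOR and VP16-NR2E3 two-hybrid luciferase reporter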
Chain of Photoreceptor-specific nuclear receptor (Q9Y5X4 whole entry, the tested form may be a part): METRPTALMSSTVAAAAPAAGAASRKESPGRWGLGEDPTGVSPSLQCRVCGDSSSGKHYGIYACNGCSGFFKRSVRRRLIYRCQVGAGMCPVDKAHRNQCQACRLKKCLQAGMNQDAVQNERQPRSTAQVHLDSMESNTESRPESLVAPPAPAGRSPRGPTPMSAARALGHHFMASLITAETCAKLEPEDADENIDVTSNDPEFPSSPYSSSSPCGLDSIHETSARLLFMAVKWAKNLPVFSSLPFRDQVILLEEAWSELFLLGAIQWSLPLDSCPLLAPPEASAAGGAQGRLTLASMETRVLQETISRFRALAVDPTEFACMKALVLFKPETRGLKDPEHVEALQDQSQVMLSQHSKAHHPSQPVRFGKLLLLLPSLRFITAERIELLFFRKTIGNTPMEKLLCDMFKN

[11] = viability loss in HeLa cells – cytotoxicity control for MgcRacGAP inhibitor project, dose response (AID 624300); format: functional
[12] = biological target: T3, Rac GTPase-activating protein 1 (Homo sapiens, UniProt Q9H0H5); experiment: blockers of MgcRacGAP-driven Rac1 GTP hydrolysis – biochemical, ADP Hunter fluorescence, primary and confirmatory, confirmation (AID 624330); format: functional
T3 sequence (Q9H0H5 whole entry): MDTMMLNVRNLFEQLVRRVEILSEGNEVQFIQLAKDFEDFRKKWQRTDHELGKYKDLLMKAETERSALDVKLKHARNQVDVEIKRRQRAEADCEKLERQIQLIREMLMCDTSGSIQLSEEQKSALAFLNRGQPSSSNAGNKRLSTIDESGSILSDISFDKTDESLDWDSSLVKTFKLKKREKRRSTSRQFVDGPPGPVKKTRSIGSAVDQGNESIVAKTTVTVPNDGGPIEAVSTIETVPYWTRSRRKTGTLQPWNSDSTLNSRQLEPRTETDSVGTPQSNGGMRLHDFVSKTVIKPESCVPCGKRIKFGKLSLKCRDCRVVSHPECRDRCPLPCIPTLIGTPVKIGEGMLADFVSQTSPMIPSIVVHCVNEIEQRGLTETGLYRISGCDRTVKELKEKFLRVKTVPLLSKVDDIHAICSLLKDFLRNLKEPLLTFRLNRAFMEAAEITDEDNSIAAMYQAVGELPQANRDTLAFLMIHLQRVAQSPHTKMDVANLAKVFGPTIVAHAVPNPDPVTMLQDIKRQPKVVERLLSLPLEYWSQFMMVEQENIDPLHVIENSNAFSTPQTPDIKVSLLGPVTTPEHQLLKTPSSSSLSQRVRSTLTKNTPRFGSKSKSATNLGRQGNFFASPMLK

[13] = cells
[14] = biological target: T4, Replicative DNA helicase DnaB (Mycobacterium tuberculosis, UniProt P9WMR3); experiment: DnaB intein splicing inhibitors, dose response, biochemical, cell-free fluorescence (AID 449749); format: functional
T4 sequence (P9WMR3 whole entry): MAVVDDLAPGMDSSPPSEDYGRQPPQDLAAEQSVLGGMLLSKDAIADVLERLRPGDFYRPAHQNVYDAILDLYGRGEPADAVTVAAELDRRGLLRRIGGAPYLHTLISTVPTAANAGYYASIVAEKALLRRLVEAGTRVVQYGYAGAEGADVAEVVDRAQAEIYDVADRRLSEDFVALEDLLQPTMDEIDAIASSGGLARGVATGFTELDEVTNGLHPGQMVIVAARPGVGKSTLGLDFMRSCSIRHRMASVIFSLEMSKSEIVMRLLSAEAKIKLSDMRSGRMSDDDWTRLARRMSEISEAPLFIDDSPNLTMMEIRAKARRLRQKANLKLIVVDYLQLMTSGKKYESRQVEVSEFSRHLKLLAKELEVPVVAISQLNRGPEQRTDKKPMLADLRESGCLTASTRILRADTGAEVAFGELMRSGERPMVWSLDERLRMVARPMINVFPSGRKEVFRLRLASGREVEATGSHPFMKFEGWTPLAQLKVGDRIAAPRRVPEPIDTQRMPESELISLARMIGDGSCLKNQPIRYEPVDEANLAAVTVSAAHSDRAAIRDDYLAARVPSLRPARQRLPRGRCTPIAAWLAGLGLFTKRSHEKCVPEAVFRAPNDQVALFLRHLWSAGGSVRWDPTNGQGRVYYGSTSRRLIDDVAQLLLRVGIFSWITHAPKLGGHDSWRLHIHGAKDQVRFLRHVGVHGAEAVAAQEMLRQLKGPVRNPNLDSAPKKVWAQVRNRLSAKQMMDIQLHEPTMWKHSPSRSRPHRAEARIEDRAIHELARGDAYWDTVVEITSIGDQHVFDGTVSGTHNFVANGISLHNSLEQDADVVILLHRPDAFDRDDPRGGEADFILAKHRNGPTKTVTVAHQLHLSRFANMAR

[15] = biological target: T5, Protein RecA (Mycobacterium tuberculosis, UniProt P9WHJ3); experiment: Fluorescence Cell-Free Homogeneous Dose Retest to Identify Inhibitors of RecA-Intein Splicing Activity. [Related pubchem assays (depositor defined):AID2097, AID2223, AID489010, AID492950]; format: functional
T5 sequence (P9WHJ3 whole entry): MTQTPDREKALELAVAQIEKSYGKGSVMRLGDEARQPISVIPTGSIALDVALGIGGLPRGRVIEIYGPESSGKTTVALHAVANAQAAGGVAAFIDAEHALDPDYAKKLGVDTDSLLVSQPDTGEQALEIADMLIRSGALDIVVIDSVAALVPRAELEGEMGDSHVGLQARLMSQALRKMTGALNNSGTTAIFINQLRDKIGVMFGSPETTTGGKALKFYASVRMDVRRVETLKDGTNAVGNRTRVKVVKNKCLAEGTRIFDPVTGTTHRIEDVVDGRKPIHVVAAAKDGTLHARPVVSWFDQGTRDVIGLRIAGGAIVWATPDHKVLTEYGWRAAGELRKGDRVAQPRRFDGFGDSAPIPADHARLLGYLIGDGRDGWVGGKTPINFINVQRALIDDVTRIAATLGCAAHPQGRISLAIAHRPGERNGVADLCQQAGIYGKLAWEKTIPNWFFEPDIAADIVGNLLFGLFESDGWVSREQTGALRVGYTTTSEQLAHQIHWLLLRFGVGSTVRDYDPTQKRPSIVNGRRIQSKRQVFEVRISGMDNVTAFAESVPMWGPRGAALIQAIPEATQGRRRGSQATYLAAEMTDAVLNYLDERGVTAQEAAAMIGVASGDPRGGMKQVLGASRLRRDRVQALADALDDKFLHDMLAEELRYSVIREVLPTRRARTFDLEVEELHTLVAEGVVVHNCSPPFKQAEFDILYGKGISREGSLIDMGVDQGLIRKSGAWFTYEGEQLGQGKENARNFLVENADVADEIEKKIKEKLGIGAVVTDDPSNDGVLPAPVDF

[16] = biological target: T6, Sentrin-specific protease 8 (Homo sapiens, UniProt Q96LD8); format: functional
T6 sequence (Q96LD8 whole entry): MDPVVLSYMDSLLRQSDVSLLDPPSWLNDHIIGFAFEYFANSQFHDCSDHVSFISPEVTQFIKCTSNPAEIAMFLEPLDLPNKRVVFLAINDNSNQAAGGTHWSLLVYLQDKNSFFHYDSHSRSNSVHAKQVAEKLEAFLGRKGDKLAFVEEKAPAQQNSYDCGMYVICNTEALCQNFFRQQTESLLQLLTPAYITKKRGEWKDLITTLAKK

[17] = biological target: T6, Sentrin-specific protease 8; format: functional; remark: listed apart in the source
[18] = biological target: T7, Probable nicotinate-nucleotide adenylyltransferase (Staphylococcus aureus (strain N315), UniProt P65502); format: functional, Staphylococcus aureus subsp. aureus N315;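 for IC50 Mean: confirmatory dose-response retesting of NadD inhibitor hits first found in an ultra-high-throughput screen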
T7 sequence (P65502 whole entry): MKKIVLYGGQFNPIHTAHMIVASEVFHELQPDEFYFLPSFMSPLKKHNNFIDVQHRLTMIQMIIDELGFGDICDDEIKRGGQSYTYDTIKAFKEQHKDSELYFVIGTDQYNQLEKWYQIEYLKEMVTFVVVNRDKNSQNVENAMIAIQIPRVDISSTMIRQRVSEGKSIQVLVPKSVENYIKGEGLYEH

[19] = biological target: T7, Probable nicotinate-nucleotide adenylyltransferase; format: functional, Staphylococcus aureus subsp. aureus N315; conditions: read-out: IC50_Mean
[20] = biological target: ADP-ribosylation factor GTPase-activating protein 1 (Rattus norvegicus, UniProt Q62848); experiment: Fluorescence polarization-based biochemical high throughput dose response screening assay to identify inhibitors of ADP-ribosylation factor GTPase activating protein 1 (ARFGAP1).; format: functional
Chain of ADP-ribosylation factor GTPase-activating protein 1 (Q62848 whole entry): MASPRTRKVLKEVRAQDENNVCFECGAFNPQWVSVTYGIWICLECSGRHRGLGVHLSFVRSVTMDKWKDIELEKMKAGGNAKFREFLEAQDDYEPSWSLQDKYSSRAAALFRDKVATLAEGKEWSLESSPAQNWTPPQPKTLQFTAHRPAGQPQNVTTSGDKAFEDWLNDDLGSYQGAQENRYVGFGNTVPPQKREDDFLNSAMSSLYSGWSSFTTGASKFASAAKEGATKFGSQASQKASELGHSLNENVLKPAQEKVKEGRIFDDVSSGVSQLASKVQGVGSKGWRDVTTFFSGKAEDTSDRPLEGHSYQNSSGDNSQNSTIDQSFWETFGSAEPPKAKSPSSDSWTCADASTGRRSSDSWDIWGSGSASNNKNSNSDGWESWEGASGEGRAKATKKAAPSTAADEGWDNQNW

[21] = mouse fibroblast viability loss – cell-based, cherry-pick samples, set 2, cytotoxicity control for T. cruzi growth inhibitor project, dose response (AID 651817); format: functional; conditions: NIH3T3
[22] = biological target: T8, Small ubiquitin-related modifier 2 (Homo sapiens, UniProt P61956); experiment: disruption of SUMO2 interaction with SIM peptide – biochemical, fluorescence polarization, uHTS hits, selectivity assay for SUMO1 interaction inhibitor project, dose response (AID 624385); format: functional; conditions: read-out: IC50_Mean
T8 sequence (P61956 whole entry): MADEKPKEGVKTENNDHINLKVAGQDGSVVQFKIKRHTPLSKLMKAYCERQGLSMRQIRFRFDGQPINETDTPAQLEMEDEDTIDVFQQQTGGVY

[23] = biological target: T9, Small ubiquitin-related modifier 1 (Homo sapiens, UniProt P63165); experiment: SUMO1 protein interaction blockers, potency – biochemical, fluorescence polarization, uHTS hits, dose response (AID 624382); format: functional; conditions: read-out: IC50_Mean
T9 sequence (P63165 whole entry): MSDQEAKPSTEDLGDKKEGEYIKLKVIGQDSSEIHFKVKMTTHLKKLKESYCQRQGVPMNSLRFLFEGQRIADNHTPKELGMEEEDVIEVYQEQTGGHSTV

[24] = biological target: T8, Small ubiquitin-related modifier 2; experiment: SUMO2 binding disruption by SUMO1 hits – biochemical, FRET, human SUMO2, uHTS hits, selectivity assay for SUMO1 interaction inhibitor project, dose response (AID 624384); format: functional; conditions: read-out: IC50_Mean
[25] = biological target: T9, Small ubiquitin-related modifier 1; experiment: SUMO1 protein-protein binding blockers, potency – biochemical, FRET, dose response (AID 624383); format: functional; conditions: read-out: IC50_Mean
[26] = glucagon-like peptide-1 release potency in STC-1, concentration-response, half-maximal inhibitory concentration in the STC-1 line (AID 1117345); format: functional, cell-based
[27] = Potency on glucagon-like peptide 1 release, dose-response in NCI-H716 cell line, half maximal inhibitory concentration (AID 1117344); format: functional, cell-based

Compound: CN(C)c1ccc(/C=C/c2ccc3ccccc3[n+]2C)cc1
- EC50 [1]: > 150 µM (inactive)
- IC50 [2]: 88.4 µM (active)
- EC50 [3]: 6.7 µM (active)
- EC50 [4]: > 150 µM (not active)
- EC50 [5]: 0.035 µM (active)
- EC50 [6]: < 0.1 µM (active)
- EC50 [7]: 18.5 µM (active)
- EC50 [8]: 11.5 µM (active)
- IC50 [9]: 14.3 µM (active)
- IC50 [10]: 19.2 µM (inactive)
- CC50 [11]: 28.9 µM (active)
- IC50 [12]: 46.8 µM (active)
- EC50 [13]: < 0.004 µM (active)

Compound: O=C1C2=[N+]([O-])C3CCCCC3[N+]([O-])=C2c2ccccc21 (configuration not stated)
- AC50 [14]: 6.38 µM (active)
- EC50 [15]: 9.54 µM (active)
- IC50 [16]: 9.46 µM (active)
- IC50 [17]: 2.98 µM (active)

Compound: N#Cc1c(SCc2c(Cl)cccc2Cl)nc(N)[nH]c1=S
- IC50 [18]: 13 µM (active)
- IC50 [19]: 32.9 µM (active)

Compound: CCC(=O)Nc1ccc(NC(=O)CSc2nnnn2-c2ccc3c(c2)OCCO3)cc1
- IC50 [20]: 40.7 µM (inactive)

Compound: C[C@@H]1CN([C@H](C)CO)C(=O)c2cccc(NC(=O)c3ccncc3)c2O[C@H]1CN(C)Cc1ccc(-c2ccccc2)cc1
- AC50 [21]: 42 µM (inactive)

Compound: [O-][S+](c1cc(Cl)cc(Cl)c1O)c1cc(Cl)cc(Cl)c1O [BITHIONOLOXIDE]
- IC50 [22]: 3.55 µM (active)
- IC50 [23]: 0.876 µM (active)
- IC50 [24]: 43.3 µM (inactive)
- IC50 [25]: 9.66 µM (active)
- IC50 [26]: > 40 µM (inactive)
- IC50 [27]: 19.7 µM (inactive)
